In patent US6512000B1, “Aminocarbonyl-substituted benzimidazoles having tryptase-inhibitory activity” (Boehringer Ingelheim Pharma KG, priority 1999, dated 2003):

target: T1, rh beta tryptase (Homo sapiens, UniProt P20231); assay: Tryptase inhibition test (cleavage of N-p-tosyl-Gly-Pro-Lys-para-nitroaniline, p-nitroaniline measured at 405 nm); type: biochemical; conditions: concentration at which 50% of the tryptase enzyme activity is inhibited; substrate 0.6 mM, pH 7.4, 37° C.
T1 construct: purchased Promega
In short: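 Screening at 10 μM gives percent inhibition, with IC50 derived for compounds above 70% inhibition. Enzyme: rh beta tryptase, 0.91 U/ml, pH 7.4 Tris HCl (100 mM), 5 mM Ca, 100 mg/ml heparin. After 5 min compound pre-incubation, 0.6 mM pNA substrate cleaved 5 min at 37 °C, monitored at 405 nm.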

T1 sequence (P20231 31-275): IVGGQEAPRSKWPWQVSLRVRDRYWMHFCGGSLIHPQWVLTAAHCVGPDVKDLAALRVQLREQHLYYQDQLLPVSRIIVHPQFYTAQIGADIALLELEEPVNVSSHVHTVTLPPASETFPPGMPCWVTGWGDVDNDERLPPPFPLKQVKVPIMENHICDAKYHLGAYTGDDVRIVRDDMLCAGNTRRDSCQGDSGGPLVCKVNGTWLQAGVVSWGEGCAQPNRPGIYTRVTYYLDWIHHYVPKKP

SMILES	IC50 [µM]
N=C(N)c1ccc(CCc2nc3cc(C(=O)N(Cc4ccccc4)Cc4ccc(CN)cc4)ccc3n2CCc2ccccc2)cc1 [Example 107, 2-[2-(4-amidinophenyl)ethyl]-1-(2-phenylethyl)-benzimidazol-5-yl-carboxylic acid-N-[4-(amino-methyl)-benzyl]-N-benzyl-amide]	0.344
CCOCCCn1c(CCc2ccc(C(=N)N)cc2)nc2cc(C(=O)N(Cc3ccc(CN)cc3)CC3CCCCC3)ccc21 [Example 150, 2-[2-(4-amidinophenyl)ethyl]-1-(3-ethoxypropyl)-benzimidazol-5-yl-carboxylic acid-N-[4-(amino-methyl)-benzyl]-N-cyclohexylmethyl-amide]	0.292
CCOCCCn1c(CCc2ccc(C(=N)N)cc2)nc2cc(C(=O)N(CCCc3ccccc3)Cc3ccc(CN)cc3)ccc21 [Example 166, 2-[2-(4-amidinophenyl)ethyl]-1-(3-ethoxypropyl)-benzimidazol-5-yl-carboxylic acid-N-[4-(amino-methyl)-benzyl]-N-(3-phenylpropyl)-amide]	0.274

same assay, conditions: inhibition of rh beta tryptase at 10 μM test substance; substrate N-p-tosyl-Gly-Pro-Lys-para-nitroaniline 0.6 mM, pH 7.4, 37° C., 5 minutes

SMILES	inhibition at 10 µM [%]	% Inhibition (10 μM) [%]
N=C(N)c1ccc(CCc2nc3cc(C(=O)N(Cc4ccccc4)Cc4ccc(CN)cc4)ccc3n2CCCNC(=O)Cc2ccccc2)cc1 [Example 104, 2-[2-(4-amidinophenyl)ethyl]-1-[3-(benzylcarbonylamino)-propyl]-benzimidazol-5-yl-carboxylic acid-N-[4-(amino-methyl)-benzyl]-N-benzyl-amide]	74	–
N=C(N)c1ccc(CCc2nc3cc(C(=O)N(Cc4ccccc4)Cc4ccc(CN)cc4)ccc3n2CC2CC2)cc1 [Example 106, 2-[2-(4-amidinophenyl)ethyl]-1-cyclopropylmethyl-benzimidazol-5-yl-carboxylic acid-N-[4-(amino-methyl)-benzyl]-N-benzyl-amide]	58	–
N=C(N)c1ccc(CCc2nc3cc(C(=O)N(Cc4ccccc4)Cc4ccc(CN)cc4)ccc3n2CCc2ccccc2)cc1 [Example 107, 2-[2-(4-amidinophenyl)ethyl]-1-(2-phenylethyl)-benzimidazol-5-yl-carboxylic acid-N-[4-(amino-methyl)-benzyl]-N-benzyl-amide]	65	–
N=C(N)c1ccc(CCc2nc3cc(C(=O)N(Cc4ccccc4)Cc4ccc(CN)cc4)ccc3n2CCCN2CCOCC2)cc1 [Example 113, 2-[2-(4-amidinophenyl)ethyl]-1-[3-(morpholin-4-yl)-propyl]-benzimidazol-5-yl-carboxylic acid-N-[4-(amino-methyl)-benzyl]-N-benzyl-amide]	56	–
N=C(N)c1ccc(CCc2nc3cc(C(=O)N(Cc4ccccc4)Cc4ccc(CN)cc4)ccc3n2CC2CCCO2)cc1 (stereo not shown) [Example 114, 2-[2-(4-amidinophenyl)ethyl]-1-(tetrahydrofuran-2-yl-methyl)-benzimidazol-5-yl-carboxylic acid-N-[4-(amino-methyl)-benzyl]-N-benzyl-amide]	58	–
CCOCCCn1c(CCc2ccc(C(=N)N)cc2)nc2cc(C(=O)N(Cc3ccc(CN)cc3)CC3CCCCC3)ccc21 [Example 150, 2-[2-(4-amidinophenyl)ethyl]-1-(3-ethoxypropyl)-benzimidazol-5-yl-carboxylic acid-N-[4-(amino-methyl)-benzyl]-N-cyclohexylmethyl-amide]	60	–
N=C(N)c1ccc(CCc2nc3cc(C(=O)N(Cc4ccc(CN)cc4)CC4CCCCC4)ccc3n2CCCNC(=O)Cc2ccccc2)cc1 [Example 152, 2-[2-(4-amidinophenyl)ethyl]-1-[3-(benzylcarbonylamino)-propyl]-benzimidazol-5-yl-carboxylic acid-N-[4-(amino-methyl)-benzyl]-N-cyclohexylmethyl-amide]	65	–
N=C(N)c1ccc(CCc2nc3cc(C(=O)N(Cc4ccc(CN)cc4)CC4CCCCC4)ccc3n2CC2CC2)cc1 [Example 154, 2-[2-(4-amidinophenyl)ethyl]-1-cyclopropylmethyl-benzimidazol-5-yl-carboxylic acid-N-[4-(amino-methyl)-benzyl]-N-cyclohexylmethyl-amide]	63	–
N=C(N)c1ccc(CCc2nc3cc(C(=O)N(Cc4ccc(CN)cc4)CC4CCCCC4)ccc3n2CCc2ccccc2)cc1 [Example 155, 2-[2-(4-amidinophenyl)ethyl]-1-(2-phenylethyl)-benzimidazol-5-yl-carboxylic acid-N-[4-(amino-methyl)-benzyl]-N-cyclohexylmethyl-amide]	57	–
N=C(N)c1ccc(CCc2nc3cc(C(=O)N(Cc4ccc(CN)cc4)CC4CCCCC4)ccc3n2CCCN2CCOCC2)cc1 [Example 161, 2-[2-(4-amidinophenyl)ethyl]-1-[3-(morpholin-4-yl)-propyl]-benzimidazol-5-yl-carboxylic acid-N-[4-(amino-methyl)-benzyl]-N-cyclohexylmethyl-amide]	56	–
N=C(N)c1ccc(CCc2nc3cc(C(=O)N(Cc4ccc(CN)cc4)CC4CCCCC4)ccc3n2CC2CCCO2)cc1 (stereo not shown) [Example 162, 2-[2-(4-amidinophenyl)ethyl]-1-(tetrahydrofuran-2-yl-methyl)-benzimidazol-5-yl-carboxylic acid-N-[4-(amino-methyl)-benzyl]-N-cyclohexylmethyl-amide]	60	–
CCOCCCn1c(CCc2ccc(C(=N)N)cc2)nc2cc(C(=O)N(CCCc3ccccc3)Cc3ccc(CN)cc3)ccc21 [Example 166, 2-[2-(4-amidinophenyl)ethyl]-1-(3-ethoxypropyl)-benzimidazol-5-yl-carboxylic acid-N-[4-(amino-methyl)-benzyl]-N-(3-phenylpropyl)-amide]	57	–
CCCCN(CCCC)CCCn1c(CCc2ccc(C(=N)N)cc2)nc2cc(C(=O)N(CCCc3ccccc3)Cc3ccc(CN)cc3)ccc21 [Example 167, 2-[2-(4-amidinophenyl)ethyl]-1-(3-di-n-butylaminopropyl) benzimidazol-5-yl-carboxylic acid-N-[4-(amino-methyl)-benzyl]-N-(3-phenylpropyl)-amide]	52	–
N=C(N)c1ccc(CCc2nc3cc(C(=O)N(CCCc4ccccc4)Cc4ccc(CN)cc4)ccc3n2CCCNC(=O)Cc2ccccc2)cc1 [Example 168, 2-[2-(4-amidinophenyl)ethyl]-1-[3-(benzylcarbonylamino)-propyl]-benzimidazol-5-yl-carboxylic acid-N-[4-(amino-methyl)-benzyl]-N-(3-phenylpropyl)-amide]	66	–
N=C(N)c1ccc(CCc2nc3cc(C(=O)N(CCCc4ccccc4)Cc4ccc(CN)cc4)ccc3n2CCC2CCCCC2)cc1 [Example 169, 2-[2-(4-amidinophenyl)ethyl]-1-(2-cyclohexylethyl)-benzimidazol-5-yl-carboxylic acid-N-[4-(amino-methyl)-benzyl]-N-(3-phenylpropyl)-amide]	52	–
N=C(N)c1ccc(CCc2nc3cc(C(=O)N(CCCc4ccccc4)Cc4ccc(CN)cc4)ccc3n2CC2CC2)cc1 [Example 170, 2-[2-(4-amidinophenyl)ethyl]-1-cyclopropylmethyl-benzimidazol-5-yl-carboxylic acid-N-[4-(amino-methyl)-benzyl]-N-(3-phenylpropyl)-amide]	57	–
Cc1ccc(Cn2c(CCc3ccc(C(=N)N)cc3)nc3cc(C(=O)N(CCCc4ccccc4)Cc4ccc(CN)cc4)ccc32)cc1 [Example 173, 2-[2-(4-amidinophenyl)ethyl]-1-(4-methylbenzyl)-benzimidazol-5-yl-carboxylic acid-N-[4-(amino-methyl)-benzyl]-N-(3-phenylpropyl)-amide]	51	–
N=C(N)c1ccc(CCc2nc3cc(C(=O)N(CCCc4ccccc4)Cc4ccc(CN)cc4)ccc3n2CCCN2CCOCC2)cc1 [Example 177, 2-[2-(4-amidinophenyl)ethyl]-1-[3-(morpholin-4-yl)-propyl]-benzimidazol-5-yl-carboxylic acid-N-[4-(amino-methyl)-benzyl]-N-(3-phenylpropyl)-amide]	68	–
N=C(N)c1ccc(CCc2nc3cc(C(=O)N(CCCc4ccccc4)Cc4ccc(CN)cc4)ccc3n2CC2CCCO2)cc1 (stereo not shown) [Example 178, 2-[2-(4-amidinophenyl)ethyl]-1-(tetrahydrofuran-2-yl-methyl)-benzimidazol-5-yl-carboxylic acid-N-[4-(amino-methyl)-benzyl]-N-(3-phenylpropyl)-amide]	51	–
CCOCCCn1c(CCc2ccc(C(=N)N)cc2)nc2cc(C(=O)N(Cc3ccc(Cl)cc3)Cc3ccc(CN)cc3)ccc21 [Example 182, 2-[2-(4-amidinophenyl)ethyl]-1-(3-ethoxypropyl)-benzimidazol-5-yl-carboxylic acid-N-[4-(amino-methyl)-benzyl]-N-(4-chlorbenzyl)-amide]	–	67
CCCCN(CCCC)CCCn1c(CCc2ccc(C(=N)N)cc2)nc2cc(C(=O)N(Cc3ccc(Cl)cc3)Cc3ccc(CN)cc3)ccc21 [Example 183, 2-[2-(4-amidinophenyl)ethyl]-1-(3-di-n-butylaminopropyl)-benzimidazol-5-yl-carboxylic acid-N-[4-(amino-methyl)-benzyl]-N-(4 chlorbenzyl)-amide]	–	56
N=C(N)c1ccc(CCc2nc3cc(C(=O)N(Cc4ccc(Cl)cc4)Cc4ccc(CN)cc4)ccc3n2CCCNC(=O)Cc2ccccc2)cc1 [Example 184, 2-[2-(4-amidinophenyl)ethyl]-1-[3-(benzylcarbonylamino)-propyl]-benzimidazol-5-yl-carboxylic acid-N-[4-(amino-methyl)-benzyl]-N-(4-chlorbenzyl)-amide]	–	72
N=C(N)c1ccc(CCc2nc3cc(C(=O)N(Cc4ccc(Cl)cc4)Cc4ccc(CN)cc4)ccc3n2CC2CC2)cc1 [Example 186, 2-[2-(4-amidinophenyl)ethyl]-1-cyclopropylmethyl-benzimidazol-5-yl-carboxylic acid-N-[4-(amino-methyl)-benzyl]-N-(4-chlorbenzyl)-amide]	–	60
N=C(N)c1ccc(CCc2nc3cc(C(=O)N(Cc4ccc(Cl)cc4)Cc4ccc(CN)cc4)ccc3n2CCc2ccccc2)cc1 [Example 187, 2-[2-(4-amidinophenyl)ethyl]-1-(2-phenylethyl)-benzimidazol-5-yl-carboxylic acid-N-[4-(amino-methyl)-benzyl]-N-(4-chlorbenzyl)-amide]	–	63
N=C(N)c1ccc(CCc2nc3cc(C(=O)N(Cc4ccc(Cl)cc4)Cc4ccc(CN)cc4)ccc3n2CCCN2CCOCC2)cc1 [Example 193, 2-[2-(4-amidinophenyl)ethyl]-1-[3-(morpholin-4-yl)-propyl]-benzimidazol-5-yl-carboxylic acid-N-[4-(amino-methyl)-benzyl]-N-(4-chlorbenzyl)-amide]	–	59
